Measured values reported in US9315491B2 (DEVELOPMENT CENTER FOR BIOTECHNOLOGY, priority 2009, dated 2016).

Biological target: recombinant mTOR (Homo sapiens (Human), UniProt P42345)
Test: mTOR kinase assay (33P incorporation into 4EBP1)
Assay type: biochemical
Conditions: compound at 10 μM, 10 μM ATP
Method: The activity of the compound against mTOR was examined by measuring the incorporation of ^33P from [γ-^33P]-ATP into 4EBP1. His-tagged, recombinant human 4EBP1 was expressed in E. coli, purified by nickel-nitrilotriacetic acid (Ni-NTA) resins, and stored at −80° C. Phosphorylation of 4EBP1 by mTOR was assayed in the presence or absence of the compound and performed in a final volume of 25 μl reaction buffer containing 300 ng 4EBP1, 50 ng recombinant mTOR (Invitrogen), 50 mM HEPES (pH 7.5), 1 mM EGTA, 0.01% Polysorbate 20, 10 mM MnCl2, 2.5 mM DTT, 10 μM ATP, and 0.5 μCi [γ-33P]-ATP (PerkinElmir) for 30 min at 30° C. The reactions were terminated by adding 3% phosphoric acid. The ^33P labeled 4EBP1 was transferred onto UniFilter-96 GF/B plate (PerkinElmer) and quantified by Top Count Microplate Scintillation Counter (PerkinElmer). For primary screening of kinase activity inhibition, each test compound was evaluated at […] in duplicate. […] The IC50 values of the compounds were determined after carrying out assays at eight serially diluted concentrations of each compound in duplicate. The results were analyzed using linear regression software (GraphPad Prism 5; GraphPad Software Inc.).
IC50 value is defined as the concentration of the test compound which achieves a half-maximal inhibition of the kinase activity.

Chain of recombinant mTOR (P42345 1360-2549): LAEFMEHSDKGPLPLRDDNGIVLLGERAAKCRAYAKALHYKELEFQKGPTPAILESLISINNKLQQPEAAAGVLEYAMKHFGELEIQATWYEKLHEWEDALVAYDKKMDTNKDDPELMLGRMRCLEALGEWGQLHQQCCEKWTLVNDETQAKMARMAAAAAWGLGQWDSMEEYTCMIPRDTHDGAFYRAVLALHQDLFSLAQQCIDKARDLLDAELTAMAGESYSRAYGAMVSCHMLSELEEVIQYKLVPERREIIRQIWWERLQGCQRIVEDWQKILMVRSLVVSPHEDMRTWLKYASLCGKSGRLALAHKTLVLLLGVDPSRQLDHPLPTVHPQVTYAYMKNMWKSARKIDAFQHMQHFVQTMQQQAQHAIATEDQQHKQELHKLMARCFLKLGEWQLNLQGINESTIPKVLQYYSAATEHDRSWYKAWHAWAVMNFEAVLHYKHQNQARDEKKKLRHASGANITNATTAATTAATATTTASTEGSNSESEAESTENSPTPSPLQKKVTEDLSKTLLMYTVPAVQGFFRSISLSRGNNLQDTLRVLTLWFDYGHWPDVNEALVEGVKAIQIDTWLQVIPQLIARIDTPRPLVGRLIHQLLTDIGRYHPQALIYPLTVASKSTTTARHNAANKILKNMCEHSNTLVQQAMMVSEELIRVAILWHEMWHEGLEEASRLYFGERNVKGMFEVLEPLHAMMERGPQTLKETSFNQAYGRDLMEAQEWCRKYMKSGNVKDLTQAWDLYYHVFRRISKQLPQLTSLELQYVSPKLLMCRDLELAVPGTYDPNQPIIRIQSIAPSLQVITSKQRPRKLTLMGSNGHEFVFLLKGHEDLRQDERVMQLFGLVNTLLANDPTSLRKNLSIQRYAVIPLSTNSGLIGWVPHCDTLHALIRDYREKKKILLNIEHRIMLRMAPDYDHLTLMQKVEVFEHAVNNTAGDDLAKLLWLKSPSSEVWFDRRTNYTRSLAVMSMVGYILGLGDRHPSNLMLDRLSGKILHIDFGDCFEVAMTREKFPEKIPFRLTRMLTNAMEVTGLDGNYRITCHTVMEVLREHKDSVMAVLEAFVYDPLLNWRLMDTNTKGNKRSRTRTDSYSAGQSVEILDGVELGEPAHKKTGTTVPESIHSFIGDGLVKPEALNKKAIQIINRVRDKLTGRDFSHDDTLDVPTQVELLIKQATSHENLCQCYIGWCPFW

| SMILES | inhibition at 10 µM [%] |
| --- | --- |
| COc1cnc(-c2ccc(NC(=S)Nc3ccc(F)cc3)cc2)nc1N1CCOCC1 | 89 |
| CCOC(=O)c1nc(-c2cccc(O)c2)nc(N2CCOCC2)c1OCC [MTR-0037, 5-Ethoxy-2-(3-hydroxy-phenyl)-6-morpholin-4-yl-pyrimidine-4-carboxylic acid ethyl ester] | 98 |
| CCOC(=O)c1nc(-c2ccc3[nH]ccc3c2)nc(N2CCOCC2)c1OCC [MTR-0054, 5-Ethoxy-2-(1H-indol-5-yl)-6-morpholin-4-yl-pyrimidine-4-carboxylic acid ethyl ester] | 81 |
| CCOC(=O)c1nc(-c2cccc(O)c2)nc(N2CCOCC2)c1OC [MTR-0073, 2-(3-Hydroxy-phenyl)-5-methoxy-6-morpholin-4-yl-pyrimidine-4-carboxylic acid ethyl ester] | 86 |
| CSc1c(Cl)nc(-c2ccc(NC(=O)Nc3ccc(Cl)nc3)cc2)nc1N1CCOCC1 [MTR-0077, 1-[4-(4-Chloro-5-methylsulfanyl-6-morpholin-4-yl-pyrimidin-2-yl)-phenyl]-3-(6-chloro-pyridin-3-yl)-urea] | 87 |
| CCOC(=O)c1nc(-c2ccc(NC(=O)Nc3ccc(Cl)nc3)cc2)nc(N2CCOCC2)c1OCC [MTR-0079, 2-{4-[3-(6-Chloro-pyridin-3-yl)-ureido]-phenyl}-5-ethoxy-6-morpholin-4-yl-pyrimidine-4-carboxylic acid ethyl ester] | 83 |
| CSc1c(Cl)nc(-c2ccc(O)cc2)nc1N1CCOCC1 [MTR-0098, 4-(4-Chloro-5-methylsulfanyl-6-morpholin-4-yl-pyrimidin-2-yl)-phenol] | 86 |
| CCOC(=O)c1nc(-c2ccc(NC(=S)Nc3ccccc3)cc2)nc(N2CCOCC2)c1OCC [MTR-0102, 5-Ethoxy-6-morpholin-4-yl-2-[4-(3-phenyl-thioureido)-phenyl]-pyrimidine-4-carboxylic acid ethyl ester] | 81 |
| CSc1c(Cl)nc(-c2ccc(NC(=O)NCCCl)cc2)nc1N1CCOCC1 [MTR-0108, 1-(2-Chloro-ethyl)-3-[4-(4-chloro-5-methylsulfanyl-6-morpholin-4-yl-pyrimidin-2-yl)-phenyl]-urea] | 89 |
| COc1cnc(-c2cccc(O)c2)nc1N1CCOCC1 [MTR-0116, 3-(5-Methoxy-4-morpholin-4-yl-pyrimidin-2-yl)-phenol] | 81 |
| CCOc1c(C(=O)O)nc(-c2ccc(NC(=O)Nc3ccccc3)cc2)nc1N1CCOCC1 [MTR-0118, 5-Ethoxy-6-morpholin-4-yl-2-[4-(3-phenyl-ureido)-phenyl]-pyrimidine-4-carboxylic acid] | 94 |
| CCOc1c(C(=O)N(CC)CC)nc(-c2ccc(NC(=O)Nc3ccccc3)cc2)nc1N1CCOCC1 [MTR-0120, 5-Ethoxy-6-morpholin-4-yl-2-[4-(3-phenyl-ureido)-phenyl]-pyrimidine-4-carboxylic acid diethylamide] | 98 |
| CCOC(=O)c1nc(-c2ccc(NC(N)=O)cc2)nc(N2CCOCC2)c1OCC [MTR-0121, 5-Ethoxy-6-morpholin-4-yl-2-(4-ureido-phenyl)-pyrimidine-4-carboxylic acid ethyl ester] | 94 |
| CSc1c(Cl)nc(-c2ccc(NC(=O)Nc3ccc(N(C)C)cc3)cc2)nc1N1CCOCC1 [MTR-0123, 1-[4-(4-Chloro-5-methylsulfanyl-6-morpholin-4-yl-pyrimidin-2-yl)-phenyl]-3-(4-dimethylamino-phenyl)-urea] | 91 |
| CCOc1c(C(N)=O)nc(-c2ccc(NC(=O)Nc3ccccc3)cc2)nc1N1CCOCC1 [MTR-0125, 5-Ethoxy-6-morpholin-4-yl-2-[4-(3-phenyl-ureido)-phenyl]-pyrimidine-4-carboxylic acid amide] | 96 |
| CCNC(=O)Nc1ccc(-c2ncc(OC)c(N3CCOCC3)n2)cc1 [MTR-0129, 1-Ethyl-3-[4-(5-methoxy-4-morpholin-4-yl-pyrimidin-2-yl)-phenyl]-urea] | 96 |
| CSc1c(Cl)nc(-c2ccc(NC(=O)Nc3cccc(F)c3)cc2)nc1N1CCOCC1 [MTR-0137, 1-[4-(4-Chloro-5-methylsulfanyl-6-morpholin-4-yl-pyrimidin-2-yl)-phenyl]-3-(3-fluoro-phenyl)-urea] | 84 |

| SMILES | inhibition at 10 µM [%] |
| --- | --- |
| CCOc1c(C(=O)NCCN2CCOCC2)nc(-c2ccc(NC(=O)Nc3ccccc3)cc2)nc1N1CCOCC1 [MTR-0139, 5-Ethoxy-6-morpholin-4-yl-2-[4-(3-phenyl-ureido)-phenyl]-pyrimidine-4-carboxylic acid (2-morpholin-4-yl-ethyl)-amide] | 85 |
| CCOc1c(C(=O)N2CCCC2)nc(-c2ccc(NC(=O)Nc3ccccc3)cc2)nc1N1CCOCC1 [MTR-0141, 1-{4-[5-Ethoxy-4-morpholin-4-yl-6-(pyrrolidine-1-carbonyl)-pyrimidin-2-yl]-phenyl}-3-phenyl-urea] | 96 |
| CCOC(=O)c1nc(-c2ccc(NC(=O)Nc3ccc(F)cc3)cc2)nc(N2CCOCC2)c1OCC [MTR-0149, 5-Ethoxy-2-{4-[3-(4-fluoro-phenyl)-ureido]-phenyl}-6-morpholin-4-yl-pyrimidine-4-carboxylic acid ethyl ester] | 93 |
| CCOC(=O)c1nc(-c2ccc(NC(=O)Nc3ccc(F)c(F)c3)cc2)nc(N2CCOCC2)c1OCC [MTR-0150, 2-{4-[3-(3,4-Difluoro-phenyl)-ureido]-phenyl}-5-ethoxy-6-morpholin-4-yl-pyrimidine-4-carboxylic acid ethyl ester] | 87 |
| CCNC(=O)Nc1ccc(-c2ncc(SC)c(N3CCOCC3)n2)cc1 [MTR-0159, 1-Ethyl-3-[4-(5-methylsulfanyl-4-morpholin-4-yl-pyrimidin-2-yl)-phenyl]-urea] | 97 |
| CCOc1c(CN2CCN(C)CC2)nc(-c2ccc(NC(=O)Nc3ccccc3)cc2)nc1N1CCOCC1 [MTR-0172, 1-{4-[5-Ethoxy-4-(4-methyl-piperazin-1-ylmethyl)-6-morpholin-4-yl-pyrimidin-2-yl]-phenyl}-3-phenyl-urea] | 86 |
| CSc1cnc(-c2ccc(NC(=O)Nc3ccc(F)c(F)c3)cc2)nc1N1CCOCC1 [MTR-0177, 1-(3,4-Difluoro-phenyl)-3-[4-(5-methylsulfanyl-4-morpholin-4-yl-pyrimidin-2-yl)-phenyl]-urea] | 84 |
| COc1c(C(=O)O)nc(-c2ccc(NC(=O)Nc3ccccc3)cc2)nc1N1CCOCC1 [MTR-0183, 5-Methoxy-6-morpholin-4-yl-2-[4-(3-phenyl-ureido)-phenyl]-pyrimidine-4-carboxylic acid] | 95 |
| CCOc1c(C(=O)N2CCN(C)CC2)nc(-c2ccc(NC(=O)Nc3ccccc3)cc2)nc1N1CCOCC1 [MTR-0186, 1-{4-[5-Ethoxy-4-(4-methyl-piperazine-1-carbonyl)-6-morpholin-4-yl-pyrimidin-2-yl]-phenyl}-3-phenyl-urea] | 96 |
| CCOc1c(CN2CCCCC2)nc(-c2ccc(NC(=O)Nc3ccccc3)cc2)nc1N1CCOCC1 [MTR-0193, 1-[4-(5-Ethoxy-4-morpholin-4-yl-6-piperidin-1-ylmethyl-pyrimidin-2-yl)-phenyl]-3-phenyl-urea] | 81 |
| CSc1c(Cl)nc(-c2ccc(NC(=O)NCCN3CCOCC3)cc2)nc1N1CCOCC1 [MTR-0198, 1-[4-(4-Chloro-5-methylsulfanyl-6-morpholin-4-yl-pyrimidin-2-yl)-phenyl]-3-(2-morpholin-4-yl-ethyl)-urea] | 87 |
| CSc1c(Cl)nc(-c2ccc(NC(=O)Nc3nccs3)cc2)nc1N1CCOCC1 [MTR-0200, 1-[4-(4-Chloro-5-methylsulfanyl-6-morpholin-4-yl-pyrimidin-2-yl)-phenyl]-3-thiazol-2-yl-urea] | 84 |
| CNC(=O)Nc1ccc(-c2ncc(SC)c(N3CCOCC3)n2)cc1 [MTR-0210, 1-Methyl-3-[4-(5-methylsulfanyl-4-morpholin-4-yl-pyrimidin-2-yl)-phenyl]-urea] | 96 |
| CCOC(=O)c1ccc(NC(=O)Nc2ccc(-c3nc(Cl)c(SC)c(N4CCOCC4)n3)cc2)cc1 [MTR-0212, 4-{3-[4-(4-Chloro-5-methylsulfanyl-6-morpholin-4-yl-pyrimidin-2-yl)-phenyl]-ureido}-benzoic acid ethyl ester] | 85 |
| CSc1c(Cl)nc(-c2ccc(NC(=O)Nc3ccc(N4CCOCC4=O)cc3)cc2)nc1N1CCOCC1 [MTR-0213, 1-[4-(4-Chloro-5-methylsulfanyl-6-morpholin-4-yl-pyrimidin-2-yl)-phenyl]-3-[4-(3-oxo-morpholin-4-yl)-phenyl]-urea] | 84 |
| CSc1c(Cl)nc(-c2ccc(NC(=O)Nc3ccc(N4CCOCC4)nc3)cc2)nc1N1CCOCC1 [MTR-0237, 1-[4-(4-Chloro-5-methylsulfanyl-6-morpholin-4-yl-pyrimidin-2-yl)-phenyl]-3-(6-morpholin-4-yl-pyridin-3-yl)-urea] | 85 |
| COc1ccc(NC(=O)Nc2ccc(-c3ncc(OC)c(N4CCOCC4)n3)cc2)cc1OC [MTR-0239, 1-(3,4-Dimethoxy-phenyl)-3-[4-(5-methoxy-4-morpholin-4-yl-pyrimidin-2-yl)-phenyl]-urea] | 89 |
